Converted amounts (≈) assume the structure as drawn.
Key:
Format in all cases: cell-based
[1] = tested on: STREPTOCOCCUS PYOGENES EES61; experiment: In vitro antibacterial activity, MIC, BHI agar dilution; details: S. pyogenes EES61, unit assumed
[2] = tested on: STAPHYLOCOCCUS AUREUS A-5278; experiment: as above; details: S. aureus A-5278, unit assumed
[3] = tested on: PSEUDOMONAS AERUGINOSA K799/WT; experiment: as above; details: P. aeruginosa K799/WT, unit assumed
[4] = tested on: STREPTOCOCCUS PYOGENES PIU 2548; experiment: as above; details: S. pyogenes PIU 2548, unit assumed
[5] = tested on: MYCOBACTERIUM SMEGMATIS ATCC 114; experiment: as above; details: M. smegmatis ATCC 114, unit assumed
[6] = tested on: STAPHYLOCOCCUS AUREUS 1775; experiment: as above; details: S. aureus 1775, unit assumed
ESCHERICHIA COLI H560 = experiment: as above; details: E. coli H560, unit assumed
ESCHERICHIA COLI SS = experiment: as above; details: E. coli SS, unit assumed
[7] = tested on: ACINETOBACTER CALCOACETICUS CMX 669; experiment: as above; details: A. calcoaceticus CMX 669, unit assumed
[8] = tested on: STREPTOCOCCUS BOVIS A-5169; experiment: as above; details: S. bovis A-5169, unit assumed
PSEUDOMONAS CEPACIA 296I = experiment: as above; details: P. cepacia 296I, unit assumed
[9] = tested on: STAPHYLOCOCCUS AUREUS CMX 553; experiment: as above; details: S. aureus CMX 553, unit assumed
ESCHERICHIA COLI JUHL = details: E. coli JUHL; BHI agar; unit assumed
[10] = tested on: STAPHYLOCOCCUS AUREUS A5177; experiment: In vitro antibacterial activity, MIC, BHI agar dilution; details: S. aureus A5177, unit assumed
[11] = tested on: PSEUDOMONAS AERUGINOSA BMH10; experiment: as above; details: P. aeruginosa BMH10, unit assumed
[12] = tested on: STAPHYLOCOCCUS AUREUS ATCC 6538P; experiment: as above; details: S. aureus ATCC 6538P, 35-37° C., 20 to 24 hours, unit assumed
ESCHERICHIA COLI DC-2 = experiment: as above; details: E. coli DC-2, unit assumed
[13] = tested on: PSEUDOMONAS AERUGINOSA K799/61; experiment: as above; details: P. aeruginosa K799/61, unit assumed
[14] = tested on: PSEUDOMONAS AERUGINOSA DPHD-5263; experiment: as above; details: P. aeruginosa DPHD-5263, unit assumed
[15] = tested on: STAPHYLOCOCCUS AUREUS CMX 642A; experiment: as above; details: S. aureus CMX 642A, unit assumed
[16] = tested on: STREPTOCOCCUS PYOGENES 930; experiment: as above; details: S. pyogenes 930, unit assumed
[17] = tested on: ENTEROBACTER AEROGENES ATCC 13048; experiment: as above; details: E. aerogenes ATCC 13048, unit assumed
EN[…] ATCC 8043 = experiment: as above; details: E. faecium ATCC 8043, unit assumed
Summary of the method: (§1)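 MIC was read visually as the lowest drug concentration showing no growth, a slight haze or sparsely isolated colonies relative to a compound-free BHI plate. Plates held serial aqueous dilutions in BHI agar, were spot-inoculated with 1:100 (or 1:10) culture dilutions and incubated 20 to 24 hours at 35-37° C.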

M[…] ATCC 4698 = experiment: as above; details: M. luteus ATCC 4698, unit assumed
Summary of the method: as §1

M[…] ATCC 9341 = experiment: as above; details: M. luteus ATCC 9341, unit assumed
Summary of the method: as §1

STR[…] 508 = experiment: as above; details: S. agalactiae CMX 508, unit assumed
Summary of the method: as §1

CANDIDA ALBICANS CCH 442 = experiment: as above; details: C. albicans CCH 442, unit assumed
[18] = tested on: STAPHYLOCOCCUS EPIDERMIDIS 3519; details: S. epidermidis 3519; BHI agar; unit assumed
[19] = tested on: PSEUDOMONAS AERUGINOSA 5007; experiment: In vitro antibacterial activity, MIC, BHI agar dilution; details: P. aeruginosa 5007, unit assumed
[20] = tested on: PROVIDENCIA STUARTII CMX 640; details: P. stuartii CMX 640; BHI agar; unit assumed
[21] = tested on: STAPHYLOCOCCUS AUREUS NCTC10649M; experiment: In vitro antibacterial activity, MIC, BHI agar dilution; details: S. aureus NCTC10649M, unit assumed
ESCHERICHIA COLI KNK 437 = details: E. coli KNK 437; BHI agar; unit assumed
[22] = tested on: KLEBSIELLA PNEUMONIAE ATCC 8045; experiment: In vitro antibacterial activity, MIC, BHI agar dilution; details: K. pneumoniae ATCC 8045, unit assumed
[23] = tested on: PSEUDOMONAS AERUGINOSA DPHD-2862; experiment: as above; details: P. aeruginosa DPHD-2862, unit assumed

`CC[C@H]1OC(=O)[C@H](C)C(=O)[C@H](C)[C@@H](O[C@@H]2O[C@H](C)C[C@H](N(C)C)[C@H]2O)[C@](C)(OC)C[C@@H](C)C2=NC[C@@H](COCc3ccccc3)N3C(=O)O[C@@]1(C)[C@H]3[C@H]2C` [Example 37] was tested, and the MIC [1] was no more than 0.005 µg/mL, the MIC [2] was greater than 100 µg/mL and the MIC [3] was greater than 100 µg/mL. The MIC [4] was 0.39 µg/mL (≈ 0.515 µM), the MIC [5] was 0.39 µg/mL (≈ 0.515 µM) and the MIC [6] was greater than 100 µg/mL. For the same compound, the MIC (ESCHERICHIA COLI H560) was 25 µg/mL (≈ 33 µM), the MIC (ESCHERICHIA COLI SS) was 0.39 µg/mL (≈ 0.515 µM) and the MIC [7] was 25 µg/mL (≈ 33 µM). For the same compound, the MIC [8] was no more than 0.005 µg/mL, the MIC (PSEUDOMONAS CEPACIA 296I) was 100 µg/mL (≈ 132 µM) and the MIC [9] was 0.1 µg/mL (≈ 0.132 µM). For the same compound, the MIC (ESCHERICHIA COLI JUHL) was 50 µg/mL (≈ 66 µM), the MIC [10] was 0.1 µg/mL (≈ 0.132 µM) and the MIC [11] was 50 µg/mL (≈ 66 µM). For the same compound, the MIC [12] was 0.1 µg/mL (≈ 0.132 µM), the MIC (ESCHERICHIA COLI DC-2) was 25 µg/mL (≈ 33 µM) and the MIC [13] was 0.78 µg/mL (≈ 1.03 µM). It also gave an MIC [14] greater than 100 µg/mL, an MIC [15] of 0.1 µg/mL (≈ 0.132 µM) and an MIC [16] of 100 µg/mL (≈ 132 µM). The MIC [17] was 50 µg/mL (≈ 66 µM), the MIC (EN[…] ATCC 8043) was 0.05 µg/mL (≈ 0.066 µM) and the MIC (M[…] ATCC 4698) was 0.2 µg/mL (≈ 0.264 µM). For the same compound, the MIC (M[…] ATCC 9341) was 0.01 µg/mL (≈ 0.0132 µM), the MIC (STR[…] 508) was 0.02 µg/mL (≈ 0.0264 µM) and the MIC (CANDIDA ALBICANS CCH 442) was greater than 100 µg/mL. It also gave an MIC [18] of 0.1 µg/mL (≈ 0.132 µM), an MIC [19] greater than 100 µg/mL and an MIC [20] greater than 100 µg/mL. For the same compound, the MIC [21] was 0.1 µg/mL (≈ 0.132 µM), the MIC (ESCHERICHIA COLI KNK 437) was 25 µg/mL (≈ 33 µM) and the MIC [22] was 50 µg/mL (≈ 66 µM). The MIC [23] was greater than 100 µg/mL.
`CC[C@H]1OC(=O)[C@H](C)C(=O)[C@H](C)[C@@H](O[C@@H]2O[C@H](C)C[C@H](N(C)C)[C@H]2O)[C@](C)(OC)C[C@@H](C)C2=N[C@H](CN(C)Cc3ccccc3)CN3C(=O)O[C@@]1(C)[C@H]3[C@H]2C` [Example 58] gave an MIC [1] of 0.01 µg/mL (≈ 0.013 µM), an MIC [2] greater than 100 µg/mL and an MIC [3] greater than 100 µg/mL. The MIC [4] was 0.39 µg/mL (≈ 0.506 µM), the MIC [5] was 3.1 µg/mL (≈ 4.02 µM) and the MIC [6] was greater than 100 µg/mL. For the same compound, the MIC (ESCHERICHIA COLI H560) was 50 µg/mL (≈ 64.9 µM), the MIC (ESCHERICHIA COLI SS) was 0.39 µg/mL (≈ 0.506 µM) and the MIC [7] was greater than 100 µg/mL. For the same compound, the MIC [8] was 0.01 µg/mL (≈ 0.013 µM), the MIC (PSEUDOMONAS CEPACIA 296I) was greater than 100 µg/mL and the MIC [9] was 0.78 µg/mL (≈ 1.01 µM). It also gave an MIC (ESCHERICHIA COLI JUHL) greater than 100 µg/mL, an MIC [10] of 0.78 µg/mL (≈ 1.01 µM) and an MIC [11] greater than 100 µg/mL. It also gave an MIC [12] of 0.78 µg/mL (≈ 1.01 µM), an MIC (ESCHERICHIA COLI DC-2) greater than 100 µg/mL and an MIC [13] of 3.1 µg/mL (≈ 4.02 µM). It also gave an MIC [14] greater than 100 µg/mL, an MIC [15] of 0.78 µg/mL (≈ 1.01 µM) and an MIC [16] greater than 100 µg/mL. For the same compound, the MIC [17] was greater than 100 µg/mL, the MIC (EN[…] ATCC 8043) was 0.2 µg/mL (≈ 0.259 µM) and the MIC (M[…] ATCC 4698) was 0.39 µg/mL (≈ 0.506 µM). It also gave an MIC (M[…] ATCC 9341) of 0.1 µg/mL (≈ 0.13 µM), an MIC (STR[…] 508) of 0.02 µg/mL (≈ 0.0259 µM) and an MIC (CANDIDA ALBICANS CCH 442) greater than 100 µg/mL. It also gave an MIC [18] of 0.78 µg/mL (≈ 1.01 µM), an MIC [19] greater than 100 µg/mL and an MIC [20] greater than 100 µg/mL. For the same compound, the MIC [21] was 0.78 µg/mL (≈ 1.01 µM), the MIC (ESCHERICHIA COLI KNK 437) was greater than 100 µg/mL and the MIC [22] was greater than 100 µg/mL. For the same compound, the MIC [23] was greater than 100 µg/mL.
`CC[C@H]1OC(=O)[C@H](C)C(=O)[C@H](C)[C@@H](O[C@@H]2O[C@H](C)C[C@H](N(C)C)[C@H]2O)[C@](C)(OC)C[C@@H](C)C2=NC[C@H](Cc3ccc(O)cc3)N3C(=O)O[C@@]1(C)[C@H]3[C@H]2C` [Example 65] showed an MIC [1] of 0.02 µg/mL (≈ 0.0269 µM), an MIC [2] greater than 100 µg/mL and an MIC [3] greater than 100 µg/mL. The MIC [4] was 1.56 µg/mL (≈ 2.1 µM), the MIC [5] was 6.2 µg/mL (≈ 8.33 µM) and the MIC [6] was greater than 100 µg/mL. It also gave an MIC (ESCHERICHIA COLI H560) of 50 µg/mL (≈ 67.2 µM), an MIC (ESCHERICHIA COLI SS) of 0.39 µg/mL (≈ 0.524 µM) and an MIC [7] of 100 µg/mL (≈ 134 µM). For the same compound, the MIC [8] was 0.01 µg/mL (≈ 0.0134 µM), the MIC (PSEUDOMONAS CEPACIA 296I) was 100 µg/mL (≈ 134 µM) and the MIC [9] was 0.39 µg/mL (≈ 0.524 µM). The MIC (ESCHERICHIA COLI JUHL) was 50 µg/mL (≈ 67.2 µM), the MIC [10] was 0.39 µg/mL (≈ 0.524 µM) and the MIC [11] was greater than 100 µg/mL. It also gave an MIC [12] of 0.39 µg/mL (≈ 0.524 µM), an MIC (ESCHERICHIA COLI DC-2) of 50 µg/mL (≈ 67.2 µM) and an MIC [13] of 0.78 µg/mL (≈ 1.05 µM). For the same compound, the MIC [14] was greater than 100 µg/mL, the MIC [15] was 0.39 µg/mL (≈ 0.524 µM) and the MIC [16] was greater than 100 µg/mL. It also gave an MIC [17] greater than 100 µg/mL, an MIC (EN[…] ATCC 8043) of 0.1 µg/mL (≈ 0.134 µM) and an MIC (M[…] ATCC 4698) of 0.39 µg/mL (≈ 0.524 µM). For the same compound, the MIC (M[…] ATCC 9341) was 0.05 µg/mL (≈ 0.0672 µM), the MIC (STR[…] 508) was 0.02 µg/mL (≈ 0.0269 µM) and the MIC (CANDIDA ALBICANS CCH 442) was greater than 100 µg/mL. The MIC [18] was 0.39 µg/mL (≈ 0.524 µM), the MIC [19] was greater than 100 µg/mL and the MIC [20] was greater than 100 µg/mL. The MIC [21] was 0.39 µg/mL (≈ 0.524 µM), the MIC (ESCHERICHIA COLI KNK 437) was 100 µg/mL (≈ 134 µM) and the MIC [22] was greater than 100 µg/mL. For the same compound, the MIC [23] was greater than 100 µg/mL.

From US6274715A, “Tricyclic erythromycin derivatives” (priority 1997, dated 2001)
